{"source": "patent US20070225242A1", "about": "“Method and composition for treating and preventing tumor metastasis in vivo” (The Board of Trustees of the Leland Stanford Junior …, priority 2005, published 2007)", "key": {"human cancer cells": {"tested_on": "human cancer cells", "experiment": "Cell viability", "type": "cell-based", "conditions": "data not shown"}, "[1]": {"tested_on": "A549 Non-Small Cell Lung Cancer Cells", "experiment": "A549 cells injected into the tail vein of mice", "type": "in vivo", "conditions": "sacrificed at Day 22; BAPN 100 mg/kg daily", "description": "Human lung cancer A549 cells (ATCC CCL 185), known to be highly metastatic, were generated to stably express shRNA targeting LOX, as described in Methods. […] 1×10^6 cells were injected into the tail vein of mice (all cells go to the lung).\nLungs from the dead mice bearing control tumors were formalin fixed, paraffin embedded and H&E stained to quantify lung tumors. Most lungs contained no tumors but all mice had numerous lymph node metastases and one had liver metastases. N=5 mice bearing lung tumors expressing LOX shRNA were sacrificed at Day 22. […] In addition, n=5 mice bearing control tumors treated daily with BAPN (100 mg/kg) were sacrificed at Day 22. […] The number of lung tumors for the A549 control animals is low because it is believed that the tumors metastasized out of the lung.\nWild-type or LOX shRNA A549 Non-Small Cell Lung Cancer Cells were injected into the tail vein of immune deficient mice and analyzed for survival differences for a period of 181 days. 100% of animals with wild-type tumors died within 35 days compared with only 40% of animals stably transfected with a shRNA to LOX. Some animals were allowed two weeks to develop metastases, and then were left untreated or treated twice weekly with 2 mg/kg of the LOX antibody in Example 7. FIG. 12 is a Kaplan-Meyer plot showing survival of the animals."}, "MDA231 and SiHa cells": {"tested_on": "MDA231 and SiHa cells", "experiment": "In vitro invasion assay (Matrigel-coated inserts)", "type": "cell-based", "conditions": "various human cancer cells; 24 hr oxygen deprived", "description": "The first step of the metastatic process is cell invasion. […] The invasion of various human cancer cells in vitro was examined. […] Because LOX is a copper-dependent enzyme that can act intracellularly or extracellularly, cells were treated with bathocuprione disulphonate (BCS), a copper chelator that cannot permeate the cell membrane.\nInvasive behavior was examined in vitro as previously described. Briefly, cells were serum deprived for 24 h then 2.5×10^4 cells were seeded in triplicate on both Matrigel-coated and uncoated inserts, moved to chambers containing 750 μl of FBS as a chemo-attractant and incubated at in normoxic or oxygen deprived conditions for 24 hr. Treatments with beta-aminoproprionitrile or bathocuprione disulphonate (Sigma) were performed 24 h prior to serum deprivation, and continued throughout the experiment."}, "LOX": {"target": "T1, LOX (Homo sapiens, UniProt P28300)", "T1 construct": "endogenous in cells; host or cells: Hypoxic cancer cells", "T1 sequence (P28300 169-417)": "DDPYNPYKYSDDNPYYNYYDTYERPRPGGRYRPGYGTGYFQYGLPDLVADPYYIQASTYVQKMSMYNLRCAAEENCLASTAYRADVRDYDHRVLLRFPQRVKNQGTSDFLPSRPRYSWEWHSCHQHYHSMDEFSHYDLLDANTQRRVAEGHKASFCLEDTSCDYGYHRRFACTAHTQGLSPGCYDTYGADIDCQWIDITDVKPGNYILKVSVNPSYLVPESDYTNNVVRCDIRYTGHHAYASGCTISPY", "experiment": "LOX fluorescent activity assay, in vitro (conditioned medium from hypoxic cells)", "type": "biochemical", "conditions": "500 μM BAPN, set as 0 fluorescence", "excerpt": "LOX activity may be measured in a number of ways, using a soluble elastin or soluble collagen with labeled lysine as a substrate. Details of an activity assay are given in Royce et al., “Copper metabolism in mottled mouse mutants. The effect of copper therapy on lysyl oxidase activity in brindled (Mobr) mice,” Biochem J. 1982 Feb. 15; 202(2): 369-371. Especially preferred is a […] assay. One is described in Palamakumbura, et al. “A fluorometric assay for detection of lysyl oxidase enzyme activity in biological samples,” Anal Biochem. 2002 Jan. 15; 300(2):245-51. This method was used in the present work to assess LOX inhibition by BAPN and by anti-LOX antibody in cells in culture (using conditioned media) and in mice (using plasma), in a 96-well format.\nLOX activity assay. The original method is described in Folgelgren, et al. J. Biol. Chem. 280:24690-24697 (2005). For the in vivo data, terminal bleeds were taken at the end of the experiment described above from untreated (control) mice, 2 and 3 wk BAPN mice, and antibody-treated mice. […] For the in vitro data, 50 μl of conditioned phenol-red-free medium was taken from cells incubated for 24 h under conditions of hypoxia. Samples were incubated overnight at 37° C. with different concentrations of BAPN or with purified LOX antibody at a concentration equivalent to 20 mg kg^−1 dose. Again, 0=fluorescent reading for 500 μM BAPN."}, "MMP-2": {"tested_on": "MMP-2", "experiment": "MMP gelatin zymography of RAW macrophages incubated with conditioned media", "type": "cell-based", "conditions": "BMDCs incubated 24 h with CM from hypoxic Wt cells", "description": "We examined changes in BMDC MMP activity induced by CM (FIG. 21C). MMP-9 activity was not affected by LOX or FN alone, but was elevated in CM supplemented with FN regardless of LOX status. This is consistent with our finding that FN has a stronger influence than LOX on BMDC migration.\nGelatin enzymography was performed to assess MMP activity as described. Protein concentrations were quantified to ensure equal loading."}, "lung and bone metastases": {"tested_on": "lung and bone metastases", "experiment": "Lung and bone metastases in treated mice (FIG. 17)", "type": "in vivo", "conditions": "FIGS. 17A-D", "description": "FIGS. 17A-C are pictures of lungs from mice which were treated and untreated with LOX shRNA, a LOX antibody or BAPN, showing the effect of LOX treatment on metastases in lung.\nFIGS. 17A-C are pictures of lungs from mice which were treated and untreated with LOX shRNA, the LOX antibody in Example 7 or BAPN, showing the effect of LOX treatment on metastases in lung."}}, "data": [{"compound": "N#CCCN", "note": "[BAPN, β-aminoproprionitrile]", "values": [{"measurement": "cell viability", "setting": "human cancer cells", "result": "Neither treatment with BAPN nor treatment with BCS affected cell viability"}, {"measurement": "lung tumors", "setting": "[1]", "result": "very few tumors"}, {"measurement": "metastases", "setting": "[1]", "result": "no metastases"}, {"measurement": "increased invasion under hypoxia or anoxia", "setting": "MDA231 and SiHa cells", "result": "could be prevented"}, {"measurement": "LOX inhibition", "setting": "LOX", "result": "complete LOX inhibition"}, {"measurement": "MMP-2 activity", "setting": "MMP-2", "result": "reduced"}, {"measurement": "lung and bone metastases", "setting": "lung and bone metastases", "result": "either stabilized disease or regression of lung and bone metastases"}]}]}
